Measurements: article PMC11345829, “Discovery of Potent Isoquinolinequinone N-Oxides to Overcome Cancer Multidrug Resistance” (Journal of Medicinal Chemistry, 2024)

Key:
MALME-3M = experiment: NCI60 five-dose GI50; type: cell-based; conditions: Homo sapiens
Source text: (§1) The concentration−response curve generated enables the determination of three criteria, GI50 (drug concentration at which 50% of cell growth is inhibited), total growth inhibition (TGI) and LC50 (drug concentration at which 50% of tumor cells are killed) which can be used to compare effectiveness against any compound tested in the screen since its inception.
(§2) S2.1 NCI Screening Assay Experimental details
(§3) NCI Screening Assay Experimental: Cancer cell growth assays (NCI60 screening) 5,6 One-dose study: Tested compounds were initially solubilised in DMSO, diluted into RPMI 1640 and 5% fetal bovine serum/L-glutamine, and added to 96-well plates containing cell lines previously cultured for 24 h. After 48 h incubation, the media were removed, and the cells were fixed and stained with sulforhodamine B to determine overall percent growth/ total protein content. Unbound dye was removed with five washes of 1% acetic acid, and the plates were allowed to air dry. The dye was then resolubilised in Tris buffer, and the colorimetric absorbance was measured (515 nm). Growth inhibition was measured relative to the response generated from proliferating cells cultured under identical conditions for 48 h. Data from one-dose experiments pertains to the percentage growth at […]
(§4) Five-dose study: Serial 5 × 10-fold dilution from an initial DMSO stock solution was performed, prior to incubation at each individual concentration (10 nM, 100 nM, 1 μM, 10 μM and 100 μM). Using seven absorbance measurements (time zero (Tz), control growth (C), and test growth in the presence of drug at the five concentration levels (Ti)), the percentage growth was calculated at each of the drug concentrations levels. Percentage growth inhibition was calculated as: [(Ti − Tz)/(C − Tz)] × 100 for concentrations for which Ti ≥ Tz, [(Ti − Tz)/Tz] × 100 for concentrations for which Ti < Tz. Three dose response parameters were calculated for each experimental agent. […]
(§5) was calculated from [(Ti − Tz)/(C − Tz)] × 100 = 50, which is the drug concentration resulting in a 50% reduction in the net protein increase (as measured by sulforhodamine B staining) in control cells during the drug incubation. The drug concentration resulting in total growth inhibition (TGI) was calculated from Ti = Tz. The LC50 (concentration of drug resulting in a 50% reduction in the measured protein at the end of the drug treatment as compared to that at the beginning) indicating a net loss of cells following treatment was calculated from [(Ti − Tz)/Tz] × 100 = −50. Values were calculated for each of these three parameters if the level of activity was reached; however, if the effect was not reached or was exceeded, the value for that parameter was expressed as greater or less than the maximum or minimum concentration tested.

OVCAR-4 = experiment: NCI60 five-dose GI50; type: cell-based; conditions: Homo sapiens
Source text: as §1, §2, §3, §4, §5

NSCLC cell line panel = experiment: NCI60 five-dose GI50, NSCLC cell line panel; type: cell-based; conditions: Homo sapiens, read-out: GI50 range NSCLC cell line panel
Source text: as §1, §2
NCI Screening Assay Experimental: Cancer cell growth assays (NCI60 screening) 5,6 One-dose study: Tested compounds were initially solubilised in DMSO, diluted into RPMI 1640 and 5% fetal bovine serum/L-glutamine, and added to 96-well plates containing cell lines previously cultured for 24 h. […] The dye was then resolubilised in Tris buffer, and the colorimetric absorbance was measured (515 nm). Growth inhibition was measured relative to the response generated from proliferating cells cultured under identical conditions for 48 h. […]
Five-dose study: Serial 5 × 10-fold dilution from an initial DMSO stock solution was performed, prior to incubation at each individual concentration (10 nM, 100 nM, 1 μM, 10 μM and 100 μM). Using seven absorbance measurements (time zero (Tz), control growth (C), and test growth in the presence of drug at the five concentration levels (Ti)), the percentage growth was calculated at each of the drug concentrations levels. […]

MCF12A = experiment: SRB cytotoxicity assay, nontumorigenic breast cells; type: cell-based, human; conditions: 48 h at GI50 concentration obtained on NCI-H460 cells
Procedure: (§6) Selectivity over nontumorigenic cells is a key requirement in cancer therapy so the cytotoxicity of 25 against nontumorigenic lung fibroblast (MRC-5) and breast cell lines (MCF12A) was evaluated with the SRB assay.
Compound 25 was also tested on the nontumorigenic MCF-12A human breast epithelial cell line. […] Following this treatment, the SRB assay was performed as described above.
S3.5 Effect of 25 on the non-tumorigenic MCF12A cell line (Figure S66)
Figure S66 Cytotoxic effect of compound 25 on the non-tumorigenic MCF12A cell line, analysed by the
obtained in the NCI-H460 and NCI-H460/R pair of counterpart cell lines. Results are presented as the
% of cell growth relative to the control cells (treated with the compound vehicle, DMSO at the % used
Data are expressed as mean ± SEM from 3 independent experiments.
(§7) (1 picture or pasted object on this page, not shown here)

MRC-5 = experiment: SRB cytotoxicity assay, nontumorigenic lung fibroblasts; type: cell-based, human; conditions: 48 h
Procedure: as §6
Figure 5 Cytotoxic effect of compound 25 on the nontumorigenic MRC-5 cell line (fibroblasts isolated from the lung tissue), analyzed by the SRB assay. Concentration−response curves of MRC-5 cells exposed to compound 25 for 48 h. Results are presented as percentage (%) of cell growth compared to control cells (vehicle, DMSO). For comparison purposes, the GI50 concentration of compound 25 in the NCI-H460 cell line is represented by the vertical dotted line. Results are the mean ± SEM from at least three independent experiments.
Cells were seeded at a previously determined optimal cell concentration (5.0 × 10^4 cells/mL for NSCLC cells and the nontumorigenic MRC-5 cell line and 1.0 × 10^5 cells/mL for colorectal cancer cells) and incubated at 37 °C for 24 h. […] The SRB assay was performed as previously described.[78],[79] […] Absorbance was measured at 510 nm in a multiplate reader (Synergy Mx, Biotek Instruments Inc., Winooski, Vermont, USA) using the Gen5 software (Biotek Instruments Inc.).

NCI-H460 cells = experiment: Trypan blue exclusion assay; type: cell-based, human; conditions: 48 h; GI50 (0.35 μM) and 2 × GI50 (0.7 μM)
Procedure: After this treatment, cells were mixed with 0.2% (v/v) trypan blue dye (Merck LifeScience) and counted on an hemocytometer (Neubauer Chamber).
S3.4 Effect of 25 on the viable cell number of NCI-H460 cells (Figure S65)
Figure S65 Effect of 25 on the viable cell number of NCI-H460 cells, determined with the Trypan blue exclusion assay. Cells were incubated for 48 h with medium, DMSO (vehicle 1: % of vehicle used at the GI50 concentration of compound; vehicle 2: % of vehicle used at the 2GI50 concentration of compound), […]
compound 25. Results are the mean ± SEM from at least three independent experiments. # p ≤ 0.05 and **** p ≤ 0.0001, when comparing DMSO vs. compound treatment.
as §7

Question: With `COC(=O)c1c2c(c[n+]([O-])c1C)C(=O)C=C(NCc1ccccc1)C2=O` [Compound 25] as the compound, how does the GI50 (MALME-3M) read?
Answer: Its GI50 is 48 nM.

Question: What about the GI50 (OVCAR-4) of the same compound?
Answer: The GI50 was 69 nM.

Question: What about the GI50 (NSCLC cell line panel) of the same compound?
Answer: Its GI50 is 174 to 397 nM.

Question: What about the “effect on MCF12A growth” value (MCF12A) of the same compound?
Answer: Its value is “did not cause significant alterations in the growth of these nontumorigenic cells”.

Question: And the GI50 (MRC-5; Homo sapiens, MRC5, SRB, nontumorigenic lung fibroblasts, ±0.075 SEM)?
Answer: Its GI50 is 1530 nM.

Question: And the “effect on MRC-5 growth at low concentrations” value (MRC-5; below 0.5 μM)?
Answer: Its value is “does not reduce the growth of this cell line”.

Question: What about the “percentage of viable cells” value (NCI-H460 cells) of the same compound?
Answer: The value was “significant decrease in the percentage of viable cells”.
